Measurements reported in patent US20160159940A1, “POLYDENDRONS” (The Univeristy of Liverpool, priority 2013, published 2016).
pEC50: −log10 of the molar value.

Experiments:
Caco-2 cells [1] = experiment: ATP assay (CellTiter-Glo) of Caco-2 cells (cytotoxicity); type: cell-based
Description: (§1) Caco-2 cells were purchased from American Type Culture Collection (ATCC, USA) and maintained in Dulbecco's Modified Eagles Medium (DMEM) supplemented with 15% filtered sterile foetal bovine serum. Cells were incubated at 37° C. and 5% CO2 and were routinely sub-cultured every 4 days when 90% confluent. Cell count and viability was determined using a Countess automated cell counter (Invitrogen).
(§2) Caco-2 cells were seeded at a density of 1.0×10^4 cells/100 μl in DMEM supplemented with 15% FBS into each well of a 96 well plate (Nunclon, Denmark) and incubated at 37° C. and 5% CO2. Cells from 4 separate flasks of biological replicates of each cell type were used (N1-4) to improve statistical power. Media was then aspirated from […] and replaced with media containing each polydendron or aqueous Nile Red solution at an equivalent 1 μM Nile Red concentration then diluted 1:1 in media across the plate up to column 11. Column 12 served as a negative control and consisted of media and untreated cells. Following polydendron addition, the plates were incubated for 24 hours or 120 hours at 37° C., 5% CO2 prior to assessment of cytotoxicity.
Following incubation of treated plates for 24 h or 120 h, cells were equilibrated to room temperature for approximately 30 minutes. All but 20 μl of media was removed from each well and 20 μl CellTiter-Glo® (Promega, UK) reagent was added. All reagents were made fresh and in accordance with the manufacturer's instructions. Plates were put on an orbital shaker for 10 minutes to mix contents and allow for stabilisation of luminescence signal. Luminescence was then measured using a Tecan Genios plate reader (Tecan Magellan, Austria).

[2] = Transcellular permeability of Nile Red across Caco-2 cell monolayers; type: in vitro ADME; settings: human, Caco-2, 1 hour incubation, 1 μM Nile Red, mean of biological triplicate
Description: (§3) Transwells were seeded with 3.5×10^4 cells per well and propagated to a monolayer over a 21 day period, during which media in the apical and basolateral wells was changed every other day. Trans-epithelial electrical resistance (TEER) values were monitored until they were >1300Ω. 1 μM of Nile Red polydendron or 1 μM aqueous Nile Red was added to the apical chamber of 4 wells and the basolateral chamber of 4 wells to quantify transport in both Apical to Basolateral (A>B) and Basolateral to Apical (B>A) direction and sampled on an hourly basis over a 4 h time period. Apparent permeability coefficient was then determined by the amount of compound transported over time using the equation: […]
(§4) where (dQ/dt) is the amount per time (nmol·sec^−1), A is the surface area of the filter and C0 is the starting concentration of the donor chamber (1 μM).
(§5) 100 μl of each collected sample was mixed with 900 μl acetone, vortexed, sonicated for 6 minutes and centrifuged at 13300 rpm for 3 minutes. The supernatant was completely dried in a vacuum centrifuge at 30° C. until the dry solid sample was left. This was reconstituted in 150 μl acetonitrile, transferred to a 96-well black walled, flat bottomed plate and measured for fluorescence intensity excitation wavelength 480 nm, emission wavelength 560 nm using a Tecan Genios plate reader (Tecan Magellan, Austria).

Caco-2 cell monolayers = experiment: as above; type: in vitro ADME; settings: 1 hour incubation
Description: as §3, §4, §5

Caco-2 cells [3] = experiment: MTT assay of Caco-2 cells (cytotoxicity); type: cell-based
Description: as §1, §2
Following incubation of treated plates for 24 h or 120 h, 20 μl of 5 mg ml^−1 MTT reagent was added to each well and incubated for 2 hours. Subsequently, 100 μL MTT lysis buffer (50% N—N-Dimethylformamide in water containing 20% SDS, 2.5% glacial acetic acid and 2.5% hydrochloric acid, pH 4.7) was added to each well to lyse overnight at 37° C., 5% CO2. Following incubation the absorbance of each well was read using a Tecan Genosis plate reader at 560 nm (Tecan Magellan, Austria).

[4] = 24 hour incubation, range of concentrations investigated
[5] = 120 hour incubation, range of concentrations investigated

In the case of `CCN(CC)c1ccc2nc3c4ccccc4c(=O)cc-3oc2c1` [aqueous Nile Red, Nile red], the “ATP presence compared to untreated cells” value (Caco-2 cells [1]; [4]) was “not affected”, the EC50 (Caco-2 cells [1]; 120 hour incubation, FIG. 9) was “No EC50” and the “viability compared to untreated cells” value (Caco-2 cells [1]; [5]) was “not affected”. The pEC50 (Caco-2 cells [1]; Homo sapiens, Caco-2, 24 hour incubation, FIG. 8, read-out: EC50) was 5.71, the Papp A→B at 1 h, 1 μM ([2]; read-out: Papp Apical > Basolateral) was 23.7 ×10⁻⁶ cm/s and the Papp B→A at 1 h, 1 μM ([2]; read-out: Papp Basolateral > Apical) was 6.38 ×10⁻⁶ cm/s. For the same compound, the “A > B/B > A ratio” value (Caco-2 cell monolayers) was 3.7140, the “metabolic turnover of Caco-2 cells compared to untreated cells” value (Caco-2 cells [3]; [4]) was “did not affect metabolic turnover” and the EC50 (Caco-2 cells [3]; 120 hour incubation, FIG. 7) was “No EC50”. For the same compound, the “viability of Caco-2 cells” value (Caco-2 cells [3]; [5]) was “did not affect the viability” and the pEC50 (Caco-2 cells [3]; Homo sapiens, Caco-2, 24 hour incubation, FIG. 6, read-out: EC50) was 5.94.
